Consider 1 compound from article PMC3057186, “Identification and characterization of seven new exon 11-associated splice variants of the rat mu opioid receptor gene, OPRM1” (Molecular Pain, 2011).

What all share (experiment): [3H]DAMGO saturation binding, CHO membranes
The target of one assay is T1, rMOR-1H1 (Rattus norvegicus, UniProt B8Q1M0).
T1 construct: gene Oprm1; exon 11-associated transcript predicting the same protein as rMOR-1 (AUG in exon 1a)

For another assay, the target named is T2, rMOR-1i2 (Rattus norvegicus, UniProt B8Q1M0).
T2 construct: gene Oprm1; exon 11-associated transcript predicting the same protein as rMOR-1 (AUG in exon 1a)

The target of a further assay is T3, rMOR-1H2 (Rattus norvegicus, UniProt D2CKI5).
T3 construct: gene Oprm1; 7 TM
T3 sequence (D2CKI5 1-448): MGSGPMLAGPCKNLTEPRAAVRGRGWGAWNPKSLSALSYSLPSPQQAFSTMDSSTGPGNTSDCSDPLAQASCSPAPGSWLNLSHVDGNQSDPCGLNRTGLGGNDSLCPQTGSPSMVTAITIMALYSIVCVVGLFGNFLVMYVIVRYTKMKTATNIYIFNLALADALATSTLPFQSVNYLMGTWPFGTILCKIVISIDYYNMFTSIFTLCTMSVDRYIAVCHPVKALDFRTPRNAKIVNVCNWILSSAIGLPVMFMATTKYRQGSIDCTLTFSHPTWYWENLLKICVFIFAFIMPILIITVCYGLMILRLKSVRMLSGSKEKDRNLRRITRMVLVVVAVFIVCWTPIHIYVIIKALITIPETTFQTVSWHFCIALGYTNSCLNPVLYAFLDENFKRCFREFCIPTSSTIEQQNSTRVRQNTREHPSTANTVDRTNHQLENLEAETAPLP

T1 sequence (B8Q1M0 1-398): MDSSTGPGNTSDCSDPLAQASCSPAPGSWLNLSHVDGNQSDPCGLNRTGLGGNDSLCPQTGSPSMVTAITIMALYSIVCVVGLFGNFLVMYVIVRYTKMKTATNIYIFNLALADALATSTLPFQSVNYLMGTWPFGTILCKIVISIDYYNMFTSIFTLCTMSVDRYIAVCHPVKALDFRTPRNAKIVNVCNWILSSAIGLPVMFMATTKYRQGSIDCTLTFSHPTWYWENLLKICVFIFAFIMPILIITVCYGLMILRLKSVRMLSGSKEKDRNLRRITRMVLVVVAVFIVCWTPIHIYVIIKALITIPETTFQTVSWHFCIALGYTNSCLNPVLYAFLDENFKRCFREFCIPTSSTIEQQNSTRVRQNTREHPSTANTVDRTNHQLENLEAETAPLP
T2 sequence (B8Q1M0 1-398): as above

For `C[C@@H](NC(=O)[C@@H](N)Cc1ccc(O)cc1)C(=O)NCC(=O)N(C)[C@@H](Cc1ccccc1)C(=O)NCCO` [DAMGO], the Kd – broadly, the free concentration of one partner at which half of the binding sites on the other are occupied at equilibrium, for simple one-to-one binding – stood at 0.51 ± 0.05 nM on rMOR-1H1, 0.36 ± 0.04 nM on rMOR-1i2 and 0.37 ± 0.02 nM at rMOR-1H2.
